One substance from patent US6921824B1, “Ruthenium dimeric complexes suitable as antimetastatic and antineoplastic agents” (priority 1999, dated 2005) can be followed below.

The series can be described thus: Solubility in water (remark in preparation). The class given is physicochemical.

As for “[K]2[trans-RuCl4(Me2SO)]2(μ-pyz) [Example 6]”, the Solubility in water entry is “not very soluble in water”.
